The structures appear in SMILES notation.

Here are results for 34 molecules from the METLIN SMRT retention time set (Domingo-Almenara et al. 2019).

A short description of this series: gradient 5% acetonitrile 3 min, to 50% in 2 min, to 85% in 15 min, held 3 min, 100 µL/min. The note with it: column: Zorbax Extend-C18 2.1 x 50 mm; eluents: water / acetonitrile, 0.1% formic acid. The procedure, abridged: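 In both positive and negative ionization mode, a quadrupole time-of-flight mass spectrometer coupled to HPLC analyzed pure standards run in mixtures of ~100 molecules. The Zorbax Extend-C18 column (2.1 × 50 mm, 1.8 μm) was operated at 100 μL/min with water and acetonitrile, each containing 0.1% formic acid. The dead volume was 40 μL and the dwell volume 900 μL. Retention time came from adduct peaks that were computationally picked and individually inspected by hand.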
Turning to `Cc1nc(-c2cccc(NC(=O)c3ncccn3)c2)cs1`, the RP-LC retention time came out at 665 s.
In the case of `COc1ccc(C2C(=O)N(C3CCCCC3)CC(=O)N2Cc2cccs2)cc1` (centres undefined) it was 952 s.
In the case of `COc1ccc(N2CCN(C(=O)c3ccc(=O)n(CCN4CCCC4)c3)CC2)cc1` it was 586 s; in that of `Cc1cccc(C)c1NC(=O)CSc1ccc(N2CCCC(C(=O)NC3CC3)C2)nn1` (centres undefined), 628 s.
Then `Cc1ccc(CNC(=O)Cn2c(C)cc(-c3nnc(-c4ccccc4)o3)c2C)cc1`, with 949 s.
Molecule `Cc1nc(-c2cc(S(=O)(=O)N(C)C3CCCCC3)cn2C)sc1C(=O)N1CCCC1` showed an RP-LC retention time of 959 s.
In the case of `COc1ccc(N(Cc2nnc3n2CCCCC3)C(=O)Nc2ccccc2)c(OC)c1` it was 713 s; in that of `CCc1nc(-c2cc(S(=O)(=O)Nc3ccc(F)cc3Cl)c(C)s2)cs1`, 1130 s.
Then `CCCCn1cnc2c(-c3ccccc3)cn(CC(=O)NCc3ccco3)c2c1=O`, with 922 s; and `CCc1ccc(NC(=O)Cc2c(C)n(C)c3nc(-c4ccccc4)nn3c2=O)cc1`, with 887 s; and `Cc1nc(-c2ccc(C(=O)NC3CC3)cc2)cs1`, with 706 s.
In the case of `CNC(=O)c1sc(-c2ccccc2)nc1C` it was 726 s; in that of `CN(C)C(=O)c1nc2ccccn2c1-c1ccc(Cl)cc1`, 674 s.
Turning to `CC(C)NC(=O)c1csc(N2CCCCC2)n1`, the RP-LC retention time is 919 s.
Then `Fc1ccc(CNc2ccc(-c3nc(-c4ccc(F)cc4)no3)cn2)cc1`, with 1220 s; and `CCc1noc(NC(C)=O)c1-c1ccc(C)c(S(=O)(=O)Nc2ccc(Cl)cc2F)c1`, with 866 s.
`CCOc1ccc(Nc2c3ccccc3nc3ccccc23)cc1` registered an RP-LC retention time of 795 s.
In the case of `Cc1cc(NC(=O)N2CCC(n3c(C)nc4cccnc43)CC2)ccc1Br` it was 706 s; in that of `CN(C)C(=O)c1csc(N2CCN(c3cccc(Cl)c3)CC2)n1`, 949 s.
Then `Cc1ccc(-n2c(=O)c3c(cc(C)n3C)n(CC(=O)Nc3c(C)cc(C)cc3C)c2=O)cc1`, with 626 s; and `CCOCCCNC(=O)Cc1c(C)n(C)c2nc(-c3ccccc3)nn2c1=O`, with 649 s; and `CCOC(=O)c1[nH]c(C)c(CCC(=O)Nc2ccc3c(c2)OCCO3)c1C`, with 805 s.
Then `CC(C)NC(=O)c1ccc2c(c1)CCN2C(=O)C1CCC1`, with 764 s.
`Cc1ccc(Cn2cc(-c3ccncc3)cc2C(=O)NCc2ccc(N(C)C)cc2)cc1` registered an RP-LC retention time of 630 s.
`Cc1cccc(NC(=O)N2CCC(N3CCN(Cc4ccccc4)C(=O)C3=O)CC2)c1C`: the RP-LC retention time stood at 730 s.
In the case of `Cc1ccc(F)cc1NC(=O)Cn1nc(N2CCCCCC2)c2ccccc2c1=O` it was 1140 s; in that of `COCc1c(C(=O)O)nnn1-c1ccc(C(F)(F)F)cc1`, 775 s; in that of `CCc1noc2nc(CCC(=O)NCCN3CCN(CC)CC3)nc(N3CCCCC3)c12`, 599 s.
As for `CCc1noc(-c2ccnc(-n3ncc(C(=O)NC4CC4)c3C)c2)n1`, the RP-LC retention time was determined as 815 s.
On to `COCCn1ccc2nc(C)c(C(=O)Nc3ccc4c(c3)OCO4)cc2c1=O`, for which the RP-LC retention time was found to be 666 s.
Then `Cc1cc(CNC(=O)C2CCCC2)c(C)o1`, with 762 s; and `COc1ccc(NC(=O)N2C[C@@H]3C[C@H](NS(C)(=O)=O)[C@H]2C3)c(C)c1`, with 652 s.
With `CCn1cc(-c2nc(C)c(C(=O)NCc3ccc(F)cc3)s2)c2cccnc21`, the RP-LC retention time came to 902 s.
With `COCCNC(=O)c1nnn(Cc2ccc(Cl)cc2)c1-n1cccc1`, the RP-LC retention time worked out at 890 s.
